Assay results: US9403855B2 (priority 2010, dated 2016)
Several values for one entry are separate records, joined by “and”; a condition that tells them apart may be missing. Identical values can stand only once.

What was measured:
A/WSN/1933 (H1N1) = experiment: microbe, parasite or virus in culture; assay type: cell-based, Influenza virus A/WSN/1933 (H1N1); settings: Influenza A virus, read-out: EC50 (anti-influenza activity)
[1] = tested on: A/California/7/2009 (pandemic H1N1); experiment: microbe, parasite or virus in culture; assay type: cell-based, Influenza virus A/California/7/2009 (pandemic H1N1); settings: Influenza A virus, H1N1, read-out: EC50 (anti-influenza activity)
[2] = tested on: A/Vietnam/1194/2004 RG14 (H5N1); experiment: microbe, parasite or virus in culture; assay type: cell-based, Influenza virus A/Vietnam/1194/2004 RG14 (H5N1); settings: Influenza A virus, H5N1, read-out: EC50 (anti-influenza activity)
A/Udorn/307/1972 (H3N2) = experiment: microbe, parasite or virus in culture; assay type: cell-based, Influenza virus A/Udorn/307/1972 (H3N2); settings: Influenza A virus, H3N2, read-out: EC50 (anti-influenza activity)
in vitro = settings: human
[3] = in vivo; cited from earlier work
[4] = target: neuraminidase of A/WSN/1933 (H1N1) (Influenza A virus, UniProt P03470); experiment: biochemical; design: species or system Influenza virus A/WSN/1933 (H1N1)
Chain of neuraminidase of A/WSN/1933 (H1N1) (P03470 whole entry, looked up): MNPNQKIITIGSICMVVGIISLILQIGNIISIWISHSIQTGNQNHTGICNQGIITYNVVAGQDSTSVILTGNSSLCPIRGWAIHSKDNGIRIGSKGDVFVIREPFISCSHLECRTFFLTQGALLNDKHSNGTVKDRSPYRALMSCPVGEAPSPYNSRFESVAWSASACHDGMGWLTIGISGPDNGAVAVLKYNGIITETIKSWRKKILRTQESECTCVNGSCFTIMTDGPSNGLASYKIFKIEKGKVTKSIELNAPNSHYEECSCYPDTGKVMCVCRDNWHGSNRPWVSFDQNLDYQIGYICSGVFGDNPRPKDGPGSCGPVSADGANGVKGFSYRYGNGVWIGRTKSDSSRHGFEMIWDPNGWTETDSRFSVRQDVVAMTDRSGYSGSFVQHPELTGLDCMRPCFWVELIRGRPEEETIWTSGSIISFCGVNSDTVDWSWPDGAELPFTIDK

[5] = target: neuraminidase of A/California/7/2009 (pandemic H1N1) (Influenza A virus, UniProt C3W6G3); experiment: biochemical; design: species or system Influenza virus A/California/7/2009 (pandemic H1N1)
[6] = target: neuraminidase of A/Udorn/307/1972 (H3N2) (Influenza A virus, UniProt P0DOF6); experiment: biochemical; design: species or system Influenza virus A/Udorn/307/1972 (H3N2)
Chain of neuraminidase of A/Udorn/307/1972 (H3N2) (P0DOF6 whole entry, looked up): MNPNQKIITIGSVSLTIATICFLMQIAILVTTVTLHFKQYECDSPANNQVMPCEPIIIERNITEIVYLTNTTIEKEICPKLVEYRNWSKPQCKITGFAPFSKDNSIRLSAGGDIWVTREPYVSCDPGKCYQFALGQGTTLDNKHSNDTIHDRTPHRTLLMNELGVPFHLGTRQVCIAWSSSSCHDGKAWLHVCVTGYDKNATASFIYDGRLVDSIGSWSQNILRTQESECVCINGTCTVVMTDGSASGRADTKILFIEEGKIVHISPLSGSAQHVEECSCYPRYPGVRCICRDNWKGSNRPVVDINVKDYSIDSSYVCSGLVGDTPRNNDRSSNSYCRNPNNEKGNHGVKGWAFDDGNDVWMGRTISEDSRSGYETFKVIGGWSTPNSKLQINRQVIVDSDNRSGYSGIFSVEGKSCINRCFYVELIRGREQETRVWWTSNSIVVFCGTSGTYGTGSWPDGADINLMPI

[7] = tested on: wild type (274H) neuraminidase of A/Hanoi/30408/2005 (H5N1) on 293T cells; assay type: binding
[8] = tested on: mixed 293T cells expressing 274H and 274Y neuraminidase of A/Hanoi/30408/2005 (H5N1); assay type: binding
[9] = tested on: 274H influenza virus (WSN), immobilized; assay type: binding

CC(=O)N[C@H]1[C@H]([C@H](O)[C@H](O)CO)OC(C(=O)O)=C[C@@H]1N=C(N)N [Zanamivir, reference compound]
EC50 (A/WSN/1933 (H1N1)): 23.5 ± 8.5 nM | EC50 [1]: 267 nM | EC50 [2]: 16400 ± 2980 nM | EC50 (A/Udorn/307/1972 (H3N2)): 41 ± 6 nM | CC50 (in vitro): > 100000 nM | Bioavailability [3]: 2%

CC(=O)N[C@H]1[C@H]([C@H](O)[C@H](O)CO)OC(P(=O)(O)O)=C[C@@H]1N [1a, (5-Acetamido-4-amino-6-(1,2,3-hydroxy)propyl-4,5,6-trihydropyran-2-yl) phosphonic acid]
IC50 [4]: 0.65 nM | IC50 [5]: 0.9 nM | IC50 [6]: 6.4 nM | EC50 (A/WSN/1933 (H1N1)): 1.3 nM | EC50 [1]: 20.3 nM | EC50 [2]: 978 nM | EC50 (A/Udorn/307/1972 (H3N2)): 55 nM | CC50 (in vitro): > 30000 nM

CC(=O)N[C@H]1[C@H]([C@H](O)[C@H](O)CO)OC(P(=O)(O)O)=C[C@@H]1NC(=N)N [1b, (5-Acetamido-4-guanidino-6-(1,2,3-hydroxy)propyl-4,5,6-trihydropyran-2-yl) phosphonic acid]
IC50 [4]: 1.2 nM | IC50 [5]: 0.8 nM | IC50 [6]: 5.2 nM | EC50 (A/WSN/1933 (H1N1)): 2.4 nM | EC50 [1]: 26.5 nM | EC50 [2]: 1700 ± 500 nM | EC50 (A/Udorn/307/1972 (H3N2)): 32 ± 23 nM | CC50 (in vitro): > 50000 nM

CC(=O)N[C@H]1[C@H]([C@H](OC(=O)NCc2cn(CCCCCNC(=O)CCCCC3SC[C@@H]4NC(=O)N[C@H]34)nn2)[C@H](O)CO)OC(C(=O)O)=C[C@@H]1NC(=N)N (stereo partly shown) [ZB]
percentage of ZB labeled cells [7]: 83.95% | percentage of ZB labeled cells [8]: 84.4% and 84.62% and 86.07% and 83.58% | residual ZB binding in OC competition [9]: about 3% | melting point: 170 to 172 °C

CCC(CC)O[C@@H]1C=C(C(=O)O)C[C@H](N)[C@H]1NC(C)=O [Oseltamivir acid, oseltamivir carboxylic acid, reference compound]
EC50 (A/WSN/1933 (H1N1)): 12.2 ± 2.3 nM | EC50 [1]: 76 nM | EC50 [2]: 1250 ± 440 nM | EC50 (A/Udorn/307/1972 (H3N2)): 3 ± 1.8 nM | CC50 (in vitro): > 100000 nM
